{"source": "patent US7115639B2", "about": "“Pyrrolidine oxadiazole- and thiadiazole oxime derivatives being oxytocin receptor antagonists” (Applied Research Systems ARS Holding N.V., priority 2001, dated 2006)", "key": {"[1]": {"system": "oxytocin-induced uterine contractions in the rat", "experiment": "In vivo model for inhibition of uterine contractions", "conditions": "subcutaneous, NP3S, 5 ml/kg, 10 mg/kg"}, "[2]": {"system": "oxytocin-induced uterine contractions in the rat", "experiment": "In vivo model for inhibition of uterine contractions", "conditions": "subcutaneous, NP3S, 5 ml/kg", "description": "d) In Vivo Model for Inhibition of Uterine Contractions\nThe assay intends to show the biological effect of tested compounds in an in vivo model of preterm labor, premature birth.\nNon-pregnant Charles River CD(SD) BR female rats (9–10 weeks old, 200–250 g) were treated at 18 and 24 hours before the experiment with 250 μg/kg, i.p. diethylstilbestrol (DES). For the assay, the animal was anaesthetised by urethane (1.75 g/kg, i.p.) and placed on an homeothermic operating table. The trachea was isolated and cannulated with a suitable polyethylene (PE) tubing. A midline incision at the hypogastrium level was made and one uterine horn exposed, its cephalic end cannulated with a PE240 tubing and, after filling the internal cavity with 0.2 ml of sterile physiological saline, connected to a “Gemini” amplifying/recording system via a P231D Gould Statham pressure transducer, in, order to measure said pressure. For the i.v. route of administration of the test compounds, one jugular vein was isolated and cannulated with a PE60 tubing connected to a butterfly needle to allow the administration by a dispensing syringe. In the case of intraduodenal administration of the test compounds, the duodenum was isolated and similarly cannulated through a small incision in its wall. One carotid artery was also isolated and cannulated with PE60 catheter and connected to a suitable syringe for blood sample collection (see below). After a stabilization period, the same dose of oxytocin was repeatedly injected intravenously at 30-min intervals. […] Further injections of the same dose of oxytocin were then made for a suitable time after treatment to assess inhibitory effects of the compounds under study. The contractile response of the uterus to oxytocin was quantified by measuring the intrauterine pressure and the number of contractions.\nA total of six animals is forming one group which is treated with a given test compound at a given concentration (see above).\nThe effect of the test compounds were evaluated by comparing pre- and post-treatment pressure values. In addition, at 2, 30, 90 and 210 minutes after test compound administration, a 0.5-ml blood sample was withdrawn from the cannulated carotid artery of each experimental animal. Plasma was obtained by standard laboratory procedure and the resulting samples were stored at −20° C.\nThe activities of the pyrrolidine derivatives claimed in the formula I were assessed using the above described in vivo biological assay. The values refer to the capacity of the example compound according to formula I to effectively antagonize oxytocin-induced uterine contractions in the rat."}}}
{"compound": "CO/N=C1/C[C@@H](c2nc(CCO)no2)N(C(=O)c2ccc(-c3ccccc3)cc2)C1", "note": "[(3Z,5S)-1-([1,1′-biphenyl]-4-ylcarbonyl)-5-[3-(2-hydroxyethyl)-1,2,4-oxadiazol-5-yl]-3-pyrrolidinone O-methyloxime]", "values": [{"measurement": "melting point", "result": 141, "unit": "°C"}, {"measurement": "% Reduction of Uterine Contraction", "setting": "[1]", "result": "−39.7 ± 7.2", "unit": "%"}, {"measurement": "% Reduction of Uterine Contraction", "setting": "[2]; 1 mg/kg", "result": "−13.2 ± 5.6", "unit": "%"}, {"measurement": "% Reduction of Uterine Contraction", "setting": "[2]; 3 mg/kg", "result": "−30.2 ± 1.1", "unit": "%"}, {"measurement": "% Reduction of Uterine Contraction", "setting": "[2]; 30 mg/kg", "result": "−57.5 ± 8.6", "unit": "%"}]}
